Publication PMC9069370, “Integrated Design of a Membrane‐Lytic Peptide‐Based Intravenous Nanotherapeutic Suppresses Triple‐Negative Breast Cancer” (Advanced Science, 2022)
Square brackets hold non-standard residues; d marks the D form. Peptide text beside a SMILES is read from it.

How the values were obtained:
[1] = ANTS/DPX liposome leakage assay; details: for Peptide Concentration-induced 50 % ANTS/DPX leakage at pH 4.8 (L/P), 3POPC/1POPG Vesicle / Peptide Concentration-induced 50 % ANTS/DPX leakage at pH 4.8 (L/P), POPC Vesicle / Peptide Concentration-induced 50 % ANTS/DPX leakage at pH 7.4 (L/P), 3POPC/1POPG Vesicle / Peptide Concentration-induced 50 % ANTS/DPX leakage at pH 7.4 (L/P), POPC Vesicle: 0.5 mM vesicles, peptide 0-20 µM, 3 h incubation, lipid per peptide; for Peptide Concentration-induced 50 % ANTS/DPX leakage at pH 4.8 (L/P), 3POPC/1POPG Vesicle / Peptide Concentration-induced 50 % ANTS/DPX leakage at pH 4.8 (L/P), POPC Vesicle: HCl-adjusted PBS 1X pH 4.8; for Peptide Concentration-induced 50 % ANTS/DPX leakage at pH 7.4 (L/P), 3POPC/1POPG Vesicle / Peptide Concentration-induced 50 % ANTS/DPX leakage at pH 7.4 (L/P), POPC Vesicle: PBS 1X pH 7.4, high ratio = more potent; for change of ANTS/DPX dye leakage / liposome selectivity at pH 4.8: pH = 4.8 compared with physiological pH, anionic versus neutral liposomes
Experimental: Vesicle preparation: 5 mM ANTS and 12.5 mM DPX were entrapped in 0.1 µm diameter extruded vesicles (either POPC or POPC/POPG at a ratio of 3:1) with lipids. Gel filtration chromatography of Sephadex G‐100 was used to remove external free ANTS/DPX from LUVs with entrapped contents. LUVs were diluted to 0.5 mM and used to measure the leakage activity by the addition of aliquots of ACPs. Leakage was measured after 3 h incubation. 10% Triton was used as the positive control to measure the maximum leakage of the vesicle. Fluorescence emission spectra were recorded using excitation and emission wavelength of 350 and 510 nm for ANTS/DPX using a BioTek Synergy H1 Hybrid Multi‐Mode Reader.
Peptide Concentration-induced Peptide Concentration-induced
Name Sequence† 50 % ANTS/DPX leakage 50 % ANTS/DPX leakage at pH 7.4 (L/P) at pH 4.8 (L/P)
POPC Vesicle 3POPC/1POPG Vesicle POPC Vesicle 3POPC/1POPG Vesicle […]
Extended Data Table 4 | Peptide concentration-induced 50 % ANTS/DPX liposome leakage. 0.5 mM POPC and 3POPC/1POPG vesicles were fixed and incubated with titrated peptide concentration (0, 0.02, […]
hydrochloric acid-adjusted phoshate buffered saline (1X, pH 4.8). The values are shown as lipid per

U2OS = assay type: cell-based, human; details: 72 h
MCF‐10A = test: cells; assay type: cell-based, human; details: for IC50: 72 h; for selectivity for cancerous cells over non‐tumorigenic MCF‐10A: 2D culture, ratio of IC50
Description: (§1) […], and MCF-10A cells were maintained in MEGM with supplements and growth factors bovine pituitary extract, hydrocortisone, human epidermal growth factor, insulin, and gentamicin/amphotericin-B.

HMLER = test: cells; assay type: cell-based, human; details: 72 h
Description: as §1

HMLER‐shEcad = test: cells; assay type: cell-based, human; details: 72 h
Description: as §1

HEK293T = test: cells; assay type: cell-based, human; details: 72 h
[2] = Tryptophan fluorescent binding assay; details: tryptophan fluorescence; 50 µM peptide, lipid titrated 0-5000 µM; phosphate buffered saline 1X, pH 7.4; values as lipid per peptide
Experimental: 50 µM ACP peptides and varied concentrations (concentrations: 0, 25, 50, 100, 150, 200, 250, 500, 1250, and 2500 µM) of POPC or POPC:POPG (3:1 ratio) large unilamellar vesicles were prepared in 10 mM phosphate buffer (pH 7.0). The solutions were measured after 1 h of incubation. Excitation was fixed at 280 nm (slit 9 nm) and emission was collected from 300 to 450 nm (slit 9 nm). The spectra were recorded using Cytation 5 Cell Imaging Multi‐Mode Reader from BioTek and were averaged by three scans.
Lipid Concentration-induced
Name Sequence† 50% Peptide Binding (L/P)
Extended Data Table 3 | Tryptophan binding assay. […]
peptide binding onto liposome. 50 µM peptides were fixed and incubated with titrated lipid (POPC vesicle […]
phosphate buffered saline (1X, pH 7.4). The lipid concentration that causes 50 % peptide binding was determined using tryptophan fluorescent binding assay and the values are shown as lipid per peptide.

SMILES | Peptide Concentration-induced 50 % ANTS/DPX leakage at pH 4.8 (L/P), 3POPC/1POPG Vesicle [1] | Peptide Concentration-induced 50 % ANTS/DPX leakage at pH 4.8 (L/P), POPC Vesicle [1] | Peptide Concentration-induced 50 % ANTS/DPX leakage at pH 7.4 (L/P), 3POPC/1POPG Vesicle [1] | Peptide Concentration-induced 50 % ANTS/DPX leakage at pH 7.4 (L/P), POPC Vesicle [1] | IC50 (U2OS) | IC50 (MCF‐10A) | IC50 (HMLER) | IC50 (HMLER‐shEcad) | IC50 (HEK293T) | Lipid Concentration-induced 50% Peptide Binding (L/P), 3POPC/1POPG Vesicle [2] | Lipid Concentration-induced 50% Peptide Binding (L/P), POPC Vesicle [2] | change of ANTS/DPX dye leakage / liposome selectivity at pH 4.8 [1] | selectivity for cancerous cells over non‐tumorigenic MCF‐10A (MCF‐10A)
CC(C)C[C@H](NC(=O)CN)C(=O)N[C@@H](CC(C)C)C(=O)N[C@@H](Cc1c[nH]cn1)C(=O)N[C@@H](CC(C)C)C(=O)N[C@@H](CC(C)C)C(=O)N[C@@H](CCC(=O)O)C(=O)N[C@@H](CC(C)C)C(=O)N[C@@H](CC(C)C)C(=O)N[C@@H](CC(C)C)C(=O)N[C@@H](CCCCN)C(=O)N[C@@H](C)C(=O)N[C@@H](C)C(=O)NCC(=O)N[C@@H](Cc1c[nH]c2ccccc12)C(N)=O [HEK] (H-GLLHLLELLLKAAGW-NH2) | 411 L/P | 97 L/P | 386 L/P | 755 L/P | 143 ± 80.3 µM | 29.8 ± 7.35 µM | 2.35 ± 1.06 µM | 3.45 ± 2.19 µM | 6.95 ± 1.63 µM | 0.46 L/P | 0.44 L/P |  | 
CC(C)C[C@@H](NC(=O)CN)C(=O)N[C@H](CC(C)C)C(=O)N[C@H](CC(=O)O)C(=O)N[C@H](CC(C)C)C(=O)N[C@H](CC(C)C)C(=O)N[C@H](CCC(=O)O)C(=O)N[C@H](CC(C)C)C(=O)N[C@H](CC(C)C)C(=O)N[C@H](CC(C)C)C(=O)N[C@H](CCCCN)C(=O)N[C@H](C)C(=O)N[C@H](C)C(=O)NCC(=O)N[C@H](Cc1c[nH]c2ccccc12)C(N)=O [d-DEK] (H-G[dL][dL][dD][dL][dL][dE][dL][dL][dL][dK][dA][dA]G[dW]-NH2) |  |  |  |  | 5.84 ± 0.04 µM | 0.57 ± 0.01 µM | 0.44 ± 0.1 µM | 0.36 µM | 3.28 ± 0.21 µM |  |  |  | 
CC(C)C[C@H](NC(=O)CN)C(=O)N[C@@H](CC(C)C)C(=O)N[C@@H](CCC(=O)O)C(=O)N[C@@H](CC(C)C)C(=O)N[C@@H](CC(C)C)C(=O)N[C@@H](Cc1c[nH]cn1)C(=O)N[C@@H](CC(C)C)C(=O)N[C@@H](CC(C)C)C(=O)N[C@@H](CC(C)C)C(=O)N[C@@H](CCC(=O)O)C(=O)N[C@@H](C)C(=O)N[C@@H](C)C(=O)NCC(=O)N[C@@H](Cc1c[nH]c2ccccc12)C(N)=O [EHE] (H-GLLELLHLLLEAAGW-NH2) | 384 L/P | 75 L/P | 706 L/P | 952 L/P | 18.2 ± 1.06 µM |  |  | 2.55 ± 0.07 µM | 13 µM | 0.44 L/P | 0.44 L/P | significantly increased dye leakage from anionic liposomes | > 25 fold
CC(C)C[C@H](NC(=O)CN)C(=O)N[C@@H](CC(C)C)C(=O)N[C@@H](CCCCN)C(=O)N[C@@H](CC(C)C)C(=O)N[C@@H](CC(C)C)C(=O)N[C@@H](CCC(=O)O)C(=O)N[C@@H](CC(C)C)C(=O)N[C@@H](CC(C)C)C(=O)N[C@@H](CC(C)C)C(=O)N[C@@H](CCC(=O)O)C(=O)N[C@@H](C)C(=O)N[C@@H](C)C(=O)NCC(=O)N[C@@H](Cc1c[nH]c2ccccc12)C(N)=O [KEE] (H-GLLKLLELLLEAAGW-NH2) | 108 L/P | 97 L/P | 657 L/P | 626 L/P | 49.4 ± 13.3 µM |  |  | 2.05 ± 0.21 µM | 11.1 ± 1.84 µM | 0.20 L/P | 0.20 L/P | no increase in selectivity at low pH | > 25 fold
CC(C)C[C@H](NC(=O)CN)C(=O)N[C@@H](CC(C)C)C(=O)N[C@@H](CCC(=O)O)C(=O)N[C@@H](CC(C)C)C(=O)N[C@@H](CC(C)C)C(=O)N[C@@H](CCC(=O)O)C(=O)N[C@@H](CC(C)C)C(=O)N[C@@H](CC(C)C)C(=O)N[C@@H](CC(C)C)C(=O)N[C@@H](CCC(=O)O)C(=O)N[C@@H](C)C(=O)N[C@@H](C)C(=O)NCC(=O)N[C@@H](Cc1c[nH]c2ccccc12)C(N)=O [EEE] (H-GLLELLELLLEAAGW-NH2) | 28 L/P | 35 L/P | 346 L/P | 143 L/P | 78.8 ± 5.3 µM |  |  | 10.6 ± 3.46 µM | 50 µM | 4.50 L/P | 1.33 L/P | no increase in selectivity at low pH | > 25 fold
CC(C)C[C@H](NC(=O)CN)C(=O)N[C@@H](CC(C)C)C(=O)N[C@@H](CCC(=O)O)C(=O)N[C@@H](CC(C)C)C(=O)N[C@@H](CC(C)C)C(=O)N[C@@H](CCC(=O)O)C(=O)N[C@@H](CC(C)C)C(=O)N[C@@H](CC(C)C)C(=O)N[C@@H](CC(C)C)C(=O)N[C@@H](Cc1c[nH]cn1)C(=O)N[C@@H](C)C(=O)N[C@@H](C)C(=O)NCC(=O)N[C@@H](Cc1c[nH]c2ccccc12)C(N)=O [EEH] (H-GLLELLELLLHAAGW-NH2) | 168 L/P | 58 L/P | 755 L/P | 738 L/P | 19.6 ± 3.96 µM |  |  | 3.6 ± 0.85 µM | 12.9 ± 0.14 µM | 0.50 L/P | 0.50 L/P | significantly increased dye leakage from anionic liposomes | > 25 fold
